Assay results taken from ChEMBL document CHEMBL5291721, “A preclinical secondary pharmacology resource illuminates target-adverse drug reaction associations of marketed drugs” (Nat Commun, 2023).

Legend:
Acetylcholinesterase = Acetylcholinesterase (Homo sapiens, UniProt P22303); format: functional
D(4) dopamine receptor = target: T1, D(4) dopamine receptor (Homo sapiens, UniProt P21917)
T1 sequence (P21917 whole entry): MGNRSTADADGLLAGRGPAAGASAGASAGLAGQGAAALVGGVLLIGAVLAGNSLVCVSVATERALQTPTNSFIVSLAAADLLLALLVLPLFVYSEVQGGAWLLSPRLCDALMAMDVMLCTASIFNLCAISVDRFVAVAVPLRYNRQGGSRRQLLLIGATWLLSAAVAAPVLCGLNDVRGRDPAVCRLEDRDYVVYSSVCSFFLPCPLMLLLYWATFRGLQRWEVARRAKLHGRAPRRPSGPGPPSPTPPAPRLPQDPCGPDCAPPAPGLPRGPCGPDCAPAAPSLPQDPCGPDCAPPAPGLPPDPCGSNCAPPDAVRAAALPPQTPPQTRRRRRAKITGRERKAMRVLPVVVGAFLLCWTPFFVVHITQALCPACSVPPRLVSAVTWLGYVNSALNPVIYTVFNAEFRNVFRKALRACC

[1] = target: Sodium-dependent serotonin transporter (Homo sapiens, UniProt P31645)
[2] = target: T2, Alpha-1A adrenergic receptor (Homo sapiens, UniProt P35348); format: functional, cell-based
T2 sequence (P35348 whole entry): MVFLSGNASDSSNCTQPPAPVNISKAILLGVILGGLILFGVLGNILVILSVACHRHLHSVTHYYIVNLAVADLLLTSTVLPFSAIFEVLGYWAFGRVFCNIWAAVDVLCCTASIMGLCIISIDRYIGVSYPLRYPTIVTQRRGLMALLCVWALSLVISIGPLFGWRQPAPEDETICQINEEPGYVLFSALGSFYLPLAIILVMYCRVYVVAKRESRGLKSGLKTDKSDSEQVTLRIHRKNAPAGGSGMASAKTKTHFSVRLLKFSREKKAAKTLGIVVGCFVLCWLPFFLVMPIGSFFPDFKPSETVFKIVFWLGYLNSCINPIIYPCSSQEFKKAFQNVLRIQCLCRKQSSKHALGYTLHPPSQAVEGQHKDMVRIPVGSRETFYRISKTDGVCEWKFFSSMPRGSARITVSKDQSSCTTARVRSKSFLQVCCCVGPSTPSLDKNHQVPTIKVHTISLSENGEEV

[3] = target: T3, Alpha-2A adrenergic receptor (Homo sapiens, UniProt P08913)
T3 sequence (P08913 whole entry): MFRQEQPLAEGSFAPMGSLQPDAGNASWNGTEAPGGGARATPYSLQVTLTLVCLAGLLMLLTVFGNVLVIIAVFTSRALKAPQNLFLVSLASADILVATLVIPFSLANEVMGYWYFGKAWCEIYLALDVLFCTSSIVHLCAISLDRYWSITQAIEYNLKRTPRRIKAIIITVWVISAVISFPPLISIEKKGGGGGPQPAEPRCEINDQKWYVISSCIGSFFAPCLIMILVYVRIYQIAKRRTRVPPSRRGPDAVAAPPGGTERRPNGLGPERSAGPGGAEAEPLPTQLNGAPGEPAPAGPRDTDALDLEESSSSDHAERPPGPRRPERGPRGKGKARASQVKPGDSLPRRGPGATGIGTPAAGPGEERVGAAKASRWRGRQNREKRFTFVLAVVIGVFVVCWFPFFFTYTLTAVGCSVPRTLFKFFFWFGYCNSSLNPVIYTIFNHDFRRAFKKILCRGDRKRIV

[4] = target: T4, Muscarinic acetylcholine receptor M2 (Homo sapiens, UniProt P08172)
T4 sequence (P08172 whole entry): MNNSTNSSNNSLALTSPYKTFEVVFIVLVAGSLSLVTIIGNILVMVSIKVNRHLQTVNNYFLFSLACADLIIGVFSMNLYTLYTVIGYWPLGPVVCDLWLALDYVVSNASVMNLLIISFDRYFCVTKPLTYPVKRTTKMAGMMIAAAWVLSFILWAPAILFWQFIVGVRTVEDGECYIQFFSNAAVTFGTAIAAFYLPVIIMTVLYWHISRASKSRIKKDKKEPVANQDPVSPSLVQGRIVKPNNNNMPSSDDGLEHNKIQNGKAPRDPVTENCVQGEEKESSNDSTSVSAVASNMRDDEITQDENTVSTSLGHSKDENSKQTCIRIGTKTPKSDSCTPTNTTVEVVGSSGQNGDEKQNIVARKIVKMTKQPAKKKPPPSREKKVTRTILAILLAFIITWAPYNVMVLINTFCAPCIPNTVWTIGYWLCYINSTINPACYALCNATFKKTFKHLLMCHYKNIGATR

D(1A) dopamine receptor = D(1A) dopamine receptor (Homo sapiens, UniProt P21728)
Chain of D(1A) dopamine receptor (P21728 whole entry): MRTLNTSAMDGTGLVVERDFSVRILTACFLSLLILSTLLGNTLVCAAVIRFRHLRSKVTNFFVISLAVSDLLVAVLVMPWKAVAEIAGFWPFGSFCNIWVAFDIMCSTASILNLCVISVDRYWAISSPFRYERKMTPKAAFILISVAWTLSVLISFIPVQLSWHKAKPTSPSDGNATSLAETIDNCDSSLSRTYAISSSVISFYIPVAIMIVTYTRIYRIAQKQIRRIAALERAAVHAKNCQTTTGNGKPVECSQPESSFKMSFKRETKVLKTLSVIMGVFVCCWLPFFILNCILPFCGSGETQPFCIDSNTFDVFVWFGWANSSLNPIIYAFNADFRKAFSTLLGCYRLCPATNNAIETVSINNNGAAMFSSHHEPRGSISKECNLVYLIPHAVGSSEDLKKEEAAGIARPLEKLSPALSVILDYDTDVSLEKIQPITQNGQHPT

D(3) dopamine receptor = D(3) dopamine receptor (Homo sapiens, UniProt P35462)
Chain of D(3) dopamine receptor (P35462 whole entry): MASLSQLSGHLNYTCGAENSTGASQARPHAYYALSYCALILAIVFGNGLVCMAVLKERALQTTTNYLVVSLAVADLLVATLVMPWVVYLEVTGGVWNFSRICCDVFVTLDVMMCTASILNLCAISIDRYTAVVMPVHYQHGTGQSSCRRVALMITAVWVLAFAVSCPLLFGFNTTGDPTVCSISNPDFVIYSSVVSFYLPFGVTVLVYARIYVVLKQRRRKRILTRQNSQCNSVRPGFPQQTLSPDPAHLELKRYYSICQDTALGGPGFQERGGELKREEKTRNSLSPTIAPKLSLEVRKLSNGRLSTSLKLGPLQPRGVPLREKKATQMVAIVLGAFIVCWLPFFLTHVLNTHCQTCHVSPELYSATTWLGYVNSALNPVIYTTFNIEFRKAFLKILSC

[5] = target: Gamma-aminobutyric acid receptor subunit alpha-1 (Rattus norvegicus, UniProt P62813)
Chain of Gamma-aminobutyric acid receptor subunit alpha-1 (P62813 whole entry): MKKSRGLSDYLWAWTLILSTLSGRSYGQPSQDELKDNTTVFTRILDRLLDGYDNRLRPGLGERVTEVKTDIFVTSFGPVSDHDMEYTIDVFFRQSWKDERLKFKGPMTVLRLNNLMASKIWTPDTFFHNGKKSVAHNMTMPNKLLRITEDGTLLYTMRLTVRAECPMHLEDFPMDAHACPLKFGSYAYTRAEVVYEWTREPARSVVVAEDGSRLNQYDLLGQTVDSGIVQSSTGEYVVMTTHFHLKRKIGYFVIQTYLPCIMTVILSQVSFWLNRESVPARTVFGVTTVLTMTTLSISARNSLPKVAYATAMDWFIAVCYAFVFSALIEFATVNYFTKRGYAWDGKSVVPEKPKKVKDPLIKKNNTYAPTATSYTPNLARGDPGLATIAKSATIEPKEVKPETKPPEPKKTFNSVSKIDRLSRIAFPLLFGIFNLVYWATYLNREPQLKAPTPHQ

Histamine H3 receptor = Histamine H3 receptor (Homo sapiens, UniProt Q9Y5N1)
Chain of Histamine H3 receptor (Q9Y5N1 whole entry): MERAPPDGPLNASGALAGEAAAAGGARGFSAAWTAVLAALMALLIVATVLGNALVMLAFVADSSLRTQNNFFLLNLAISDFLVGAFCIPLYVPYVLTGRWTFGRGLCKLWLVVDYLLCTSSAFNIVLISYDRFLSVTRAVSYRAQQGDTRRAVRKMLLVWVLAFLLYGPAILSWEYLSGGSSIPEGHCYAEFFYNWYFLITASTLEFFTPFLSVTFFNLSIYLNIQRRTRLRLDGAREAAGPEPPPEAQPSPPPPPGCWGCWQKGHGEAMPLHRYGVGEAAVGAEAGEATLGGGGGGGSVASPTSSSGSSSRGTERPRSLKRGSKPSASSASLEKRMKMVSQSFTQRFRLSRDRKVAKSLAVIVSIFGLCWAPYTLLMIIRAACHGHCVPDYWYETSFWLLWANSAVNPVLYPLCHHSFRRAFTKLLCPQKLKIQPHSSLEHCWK

[6] = target: T5, 5-hydroxytryptamine receptor 1A (Homo sapiens, UniProt P08908)
T5 sequence (P08908 whole entry): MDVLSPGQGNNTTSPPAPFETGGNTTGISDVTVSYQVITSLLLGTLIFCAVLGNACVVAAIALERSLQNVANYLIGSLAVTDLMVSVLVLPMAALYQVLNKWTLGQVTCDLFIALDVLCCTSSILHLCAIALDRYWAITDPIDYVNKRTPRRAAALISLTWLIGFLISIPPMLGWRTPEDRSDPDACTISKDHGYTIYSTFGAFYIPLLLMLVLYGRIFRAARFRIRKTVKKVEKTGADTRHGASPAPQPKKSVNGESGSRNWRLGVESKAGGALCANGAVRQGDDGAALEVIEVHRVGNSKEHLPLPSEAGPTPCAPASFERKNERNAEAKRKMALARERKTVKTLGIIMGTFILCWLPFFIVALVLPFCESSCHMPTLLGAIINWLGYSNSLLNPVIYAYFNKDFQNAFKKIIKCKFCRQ

[7] = target: 5-hydroxytryptamine receptor 2B (Homo sapiens, UniProt P41595); format: functional, cell-based
Chain of 5-hydroxytryptamine receptor 2B (P41595 whole entry): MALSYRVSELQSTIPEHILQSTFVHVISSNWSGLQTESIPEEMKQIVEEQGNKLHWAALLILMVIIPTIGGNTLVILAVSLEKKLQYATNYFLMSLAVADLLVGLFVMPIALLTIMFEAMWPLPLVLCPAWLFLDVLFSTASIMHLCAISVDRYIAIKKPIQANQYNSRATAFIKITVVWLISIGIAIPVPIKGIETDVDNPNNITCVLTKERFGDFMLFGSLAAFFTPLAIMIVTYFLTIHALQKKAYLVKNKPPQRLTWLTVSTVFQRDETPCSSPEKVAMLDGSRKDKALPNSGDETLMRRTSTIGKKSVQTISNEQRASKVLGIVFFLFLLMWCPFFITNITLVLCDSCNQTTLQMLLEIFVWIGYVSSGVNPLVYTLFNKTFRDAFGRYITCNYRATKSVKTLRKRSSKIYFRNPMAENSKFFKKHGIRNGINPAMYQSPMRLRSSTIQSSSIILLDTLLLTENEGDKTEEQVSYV

[8] = target: T6, Amine oxidase [flavin-containing] A (Homo sapiens, UniProt P21397); format: functional
T6 sequence (P21397 whole entry): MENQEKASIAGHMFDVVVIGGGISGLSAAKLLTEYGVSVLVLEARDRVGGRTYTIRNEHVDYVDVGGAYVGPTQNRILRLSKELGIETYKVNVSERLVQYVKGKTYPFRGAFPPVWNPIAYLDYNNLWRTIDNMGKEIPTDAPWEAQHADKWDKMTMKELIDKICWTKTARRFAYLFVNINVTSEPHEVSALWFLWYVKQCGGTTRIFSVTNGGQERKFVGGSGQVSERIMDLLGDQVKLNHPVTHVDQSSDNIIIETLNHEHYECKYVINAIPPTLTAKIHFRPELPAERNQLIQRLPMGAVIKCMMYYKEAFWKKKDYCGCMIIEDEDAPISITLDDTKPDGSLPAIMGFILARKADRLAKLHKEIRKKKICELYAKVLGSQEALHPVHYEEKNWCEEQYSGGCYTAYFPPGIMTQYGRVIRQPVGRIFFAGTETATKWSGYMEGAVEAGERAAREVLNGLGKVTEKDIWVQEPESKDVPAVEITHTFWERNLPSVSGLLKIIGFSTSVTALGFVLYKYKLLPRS

Mu-type opioid receptor = Mu-type opioid receptor (Homo sapiens, UniProt P35372)
Chain of Mu-type opioid receptor (P35372 whole entry): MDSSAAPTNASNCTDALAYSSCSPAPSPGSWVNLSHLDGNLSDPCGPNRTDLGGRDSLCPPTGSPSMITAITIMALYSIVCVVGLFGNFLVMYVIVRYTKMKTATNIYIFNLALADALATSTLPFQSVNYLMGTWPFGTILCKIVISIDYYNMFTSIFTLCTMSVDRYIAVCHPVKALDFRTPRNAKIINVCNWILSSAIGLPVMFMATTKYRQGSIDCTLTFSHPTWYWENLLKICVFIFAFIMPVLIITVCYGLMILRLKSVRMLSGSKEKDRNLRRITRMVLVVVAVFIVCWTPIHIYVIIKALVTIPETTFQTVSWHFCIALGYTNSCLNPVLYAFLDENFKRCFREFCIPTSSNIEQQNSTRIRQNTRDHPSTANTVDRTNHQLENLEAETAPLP

[9] = target: Sodium-dependent noradrenaline transporter (Homo sapiens, UniProt P23975)
Chain of Sodium-dependent noradrenaline transporter (P23975 whole entry): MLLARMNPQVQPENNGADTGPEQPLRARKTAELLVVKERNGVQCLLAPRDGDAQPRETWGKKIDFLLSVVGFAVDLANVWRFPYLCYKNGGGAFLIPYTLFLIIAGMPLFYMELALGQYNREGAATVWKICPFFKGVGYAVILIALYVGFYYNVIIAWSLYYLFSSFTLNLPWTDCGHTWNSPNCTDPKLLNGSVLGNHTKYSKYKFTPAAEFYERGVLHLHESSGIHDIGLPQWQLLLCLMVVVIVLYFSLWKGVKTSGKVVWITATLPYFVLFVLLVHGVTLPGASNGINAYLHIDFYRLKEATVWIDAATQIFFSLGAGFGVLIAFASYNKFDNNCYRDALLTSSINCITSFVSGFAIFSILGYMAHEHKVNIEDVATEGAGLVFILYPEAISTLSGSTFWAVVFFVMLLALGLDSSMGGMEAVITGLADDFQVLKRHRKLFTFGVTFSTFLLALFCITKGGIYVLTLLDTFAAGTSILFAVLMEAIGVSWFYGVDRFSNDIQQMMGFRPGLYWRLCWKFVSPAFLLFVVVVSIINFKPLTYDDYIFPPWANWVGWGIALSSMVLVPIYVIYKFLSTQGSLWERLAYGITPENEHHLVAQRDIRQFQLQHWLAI

[10] = target: Sodium-dependent dopamine transporter (Homo sapiens, UniProt Q01959)
Chain of Sodium-dependent dopamine transporter (Q01959 whole entry): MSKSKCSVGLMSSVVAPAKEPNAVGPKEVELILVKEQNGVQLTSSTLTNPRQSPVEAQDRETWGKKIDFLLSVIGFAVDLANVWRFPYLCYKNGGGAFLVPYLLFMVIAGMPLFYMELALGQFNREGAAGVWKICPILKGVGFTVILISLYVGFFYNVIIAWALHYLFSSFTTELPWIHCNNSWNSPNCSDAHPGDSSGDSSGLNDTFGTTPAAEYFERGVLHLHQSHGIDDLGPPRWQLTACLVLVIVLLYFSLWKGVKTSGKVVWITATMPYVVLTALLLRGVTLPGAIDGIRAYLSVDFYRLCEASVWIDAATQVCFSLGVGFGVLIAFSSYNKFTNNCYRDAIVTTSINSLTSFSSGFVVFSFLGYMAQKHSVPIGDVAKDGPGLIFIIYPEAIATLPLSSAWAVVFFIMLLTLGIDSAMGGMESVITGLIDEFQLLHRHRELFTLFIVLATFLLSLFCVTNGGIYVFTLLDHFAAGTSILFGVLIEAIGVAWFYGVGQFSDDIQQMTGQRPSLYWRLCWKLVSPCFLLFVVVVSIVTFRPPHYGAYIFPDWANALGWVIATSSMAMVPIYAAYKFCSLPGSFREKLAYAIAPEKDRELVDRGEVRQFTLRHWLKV
Note: assay procedure not described here.

Chain of Acetylcholinesterase (P22303 whole entry): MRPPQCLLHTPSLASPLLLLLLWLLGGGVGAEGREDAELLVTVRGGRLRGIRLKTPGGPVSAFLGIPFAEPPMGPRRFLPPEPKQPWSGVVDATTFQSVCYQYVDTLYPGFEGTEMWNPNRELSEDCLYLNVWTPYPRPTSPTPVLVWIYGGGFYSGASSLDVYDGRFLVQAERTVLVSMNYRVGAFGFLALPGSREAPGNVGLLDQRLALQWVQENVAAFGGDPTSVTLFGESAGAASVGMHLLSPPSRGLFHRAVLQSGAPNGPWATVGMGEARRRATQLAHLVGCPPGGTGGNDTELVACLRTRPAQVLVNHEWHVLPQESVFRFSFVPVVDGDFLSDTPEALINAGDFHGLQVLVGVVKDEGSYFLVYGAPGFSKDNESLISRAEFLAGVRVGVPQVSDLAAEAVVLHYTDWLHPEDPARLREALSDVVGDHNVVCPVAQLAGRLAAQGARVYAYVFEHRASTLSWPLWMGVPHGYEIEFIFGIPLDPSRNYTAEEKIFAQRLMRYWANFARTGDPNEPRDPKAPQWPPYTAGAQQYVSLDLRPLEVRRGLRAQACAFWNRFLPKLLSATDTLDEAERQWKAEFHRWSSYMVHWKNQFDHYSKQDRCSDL

Question: Which AC50 (Acetylcholinesterase) does the source give for `CN/C(=N/CCSCc1nc[nH]c1C)NC#N` [CIMETIDINE] here?
Answer: The AC50 was > 30 µM.

Question: How did the AC50 (D(4) dopamine receptor) turn out when `O=c1[nH]c2ccccc2n1C1CCN(CCCC(c2ccc(F)cc2)c2ccc(F)cc2)CC1` [PIMOZIDE] was run?
Answer: Its AC50 is 0.0728 µM.

Question: What does the source list for `CN1CCN(CC(=O)N2c3ccccc3C(=O)Nc3cccnc32)CC1` [PIRENZEPINE]?
Answer: AC50 (Acetylcholinesterase): > 30 µM; AC50 [1]: > 30 µM

Question: With `CN1CCCN=C1/C=C/c1cccs1` as the compound, how does the AC50 (Acetylcholinesterase) read?
Answer: Its AC50 is 10.9 µM.

Question: With `CCOC(=O)C1=C(COCCN)NC(C)=C(C(=O)OC)C1c1ccccc1Cl` (stereo unspecified) [AMLODIPINE] as the compound, how does the AC50 (Acetylcholinesterase) read?
Answer: Its AC50 is > 30 µM.

Question: `CC[C@@]1(O)C[C@H](O[C@H]2C[C@H](N(C)C)[C@H](O[C@H]3C[C@H](O)[C@H](O[C@H]4CCC(=O)[C@H](C)O4)[C@H](C)O3)[C@H](C)O2)c2c(cc3c(c2O)C(=O)c2c(O)cccc2C3=O)[C@H]1C(=O)OC` [ACLARUBICIN] was tested. Which AC50 (Acetylcholinesterase) did it give?
Answer: The AC50 was > 30 µM.

Question: What about the AC50 [2] of the same compound?
Answer: The AC50 was > 30 µM.

Question: What about the AC50 [3] of the same compound?
Answer: Its AC50 is > 30 µM.

Question: And the AC50 [4]?
Answer: The AC50 was > 30 µM.

Question: What about the AC50 (D(1A) dopamine receptor) of the same compound?
Answer: The AC50 was > 30 µM.

Question: What about the AC50 (D(3) dopamine receptor) of the same compound?
Answer: Its AC50 is > 30 µM.

Question: What about the AC50 [5] of the same compound?
Answer: Its AC50 is > 30 µM.

Question: And the AC50 (Histamine H3 receptor)?
Answer: The AC50 was > 30 µM.

Question: And the AC50 [6]?
Answer: The AC50 was > 30 µM.

Question: And the AC50 [7]?
Answer: The AC50 was > 30 µM.

Question: And the AC50 [8]?
Answer: Its AC50 is > 30 µM.

Question: And the AC50 (Mu-type opioid receptor)?
Answer: The AC50 was > 30 µM.

Question: And the AC50 [9]?
Answer: Its AC50 is > 30 µM.

Question: And the AC50 [10]?
Answer: The AC50 was > 30 µM.

Question: `CC(C)n1c(/C=C/C(O)CC(O)CC(=O)O)c(-c2ccc(F)cc2)c2ccccc21` (stereo unspecified) [FLUVASTATIN] was tested. Which AC50 (Acetylcholinesterase) did it give?
Answer: The AC50 was > 30 µM.
